Four molecules from publication PMC8448819, “The Arabidopsis MIK2 receptor elicits immunity by sensing a conserved signature from phytocytokines and microbes” (Nature Communications, 2021) can be followed below.

For assay [1], the system named is mik2-1 and mik2-2 mutant seedlings. The format is in vivo, Arabidopsis thaliana. As to conditions: in vivo.
The test system of assay [2] is PEPR1^ECD-MIK2^TK/pepr1,2 transgenic seedlings. The assay can be described thus: Root growth assay, PEPR1^ECD-MIK2^TK/pepr1,2 seedlings. The format is in vivo, Arabidopsis thaliana. As to conditions: PEPR1^ECD-MIK2^TK/pepr1,2 compared to WT. From the text: The BAK1 (AT4G33430), SERK4 (AT2G13790), BIK1 (AT2G39660), and MIK2 (AT4G08850) coding sequences (CDSs) were amplified by PCR from Col-0 cDNA using the primers containing BamHI at the 5′ end and StuI at the 3′ end. The PCR products were digested by BamHI and StuI, followed by ligation into the pHBT-FLAG or pHBT-HA vector to generate pHBT-35S::BAK1-FLAG, pHBT-35S::SERK4-FLAG, pHBT-35S::BIK1-HA, pHBT-35S::MIK2-HA, and pHBT-35S::MIK2-GFP constructs[24],[41],[62]. MIK2^ECD (residues 1–707) and BAK1^ECD (residues 1–220) were amplified by PCR from Col-0 cDNA and cloned into pFastBac-1 vector with a C-terminal 6× HIS tag[25],[62]. The fusion protein vectors carrying MIK2^ECD or BAK1^ECD were used for insect cell expression. To obtain the binary vector pCAMBIA1300-35S::RLK7, a 2907-bp RLK7 CDS was PCR-amplified from WT cDNA using gene-specific primers with KpnI and SalI at the 5′ and 3′ ends, respectively, followed by KpnI and SalI digestion and ligation into the pCAMBIA1300 vector. […]
Cold stratified seeds were surface-sterilized with 70% (v/v) ethanol for 5 min and were sown on ½MS plates with or without peptides at indicated concentrations. Ten-day-old seedlings grown on plates vertically in a growth chamber were photographed, and the root lengths of seedlings were measured using Image J (http://rsb.info.nih.gov/ij/).

A short description of assay [3]: In vitro protein cleavage assay and LC-MS/MS. The format is biochemical, Arabidopsis thaliana. Here is the method: Recombinant HIS-SCOOP12 proteins were expressed in E. coli BL21 strain with an isopropyl β-D-1-thiogalactopyranoside (IPTG)-inducible system and purified with Ni-NTA agarose (QIAGEN, #166048536) in buffer containing 50 mM Tris-HCl pH 7.5 and 300 mM NaCl. For in vitro protein cleavage assay, 5 μg of purified HIS-SCOOP12 proteins were incubated with 10 μL protein extracts isolated from 10-day-old Arabidopsis WT seedlings or protein extraction buffer (50 mM HEPES, pH 7.4, 10 mM EDTA, and 1× protease inhibitor cocktail, Sigma) following a published protocol[36] for 5 h at room temperature with rotation. […] The processed SCOOP12 bands were cut from SDS-PAGE for LC-MS/MS analysis.
The processed SCOOP12 bands were in-gel digested following a published protocol, except that digestion was conducted with Lys-C (Promega, Madison, WI, USA). The digested peptides were desalted using micro ZipTip mini-reverse phase (Millipore). In brief, after wetting (with 50% acetonitrile) and equilibrating a ZipTip (with 0.1% formic acid), the peptides were bound to C-18 material. A subsequent washing step with 0.1% formic acid was followed by a final elution with 60% acetonitrile and 0.1% formic acid. The samples were lyophilized to dryness using a labconco speedvac (Centrivap, Labconco Inc., USA). The resulting peptides were resuspended in 0.1% formic acid for mass spectrometric analysis. The mass spectrometry data acquisition was performed on an EASY-nLC 1200 ultraperformance liquid chromatography system (Thermo Scientific Inc., San Jose, CA) connected to an Orbitrap Q-Exactive HF instrument equipped with a nano-electrospray source (Thermo Scientific Inc., San Jose, CA)[67]. The peptide samples were loaded to a C18 trapping column (75 μm i.d. × 2 cm, Acclaim PepMap® 100 particles with 3 μm size and 100 Å pores) and then eluted using a C18 analytical column (75 μm i.d. × 25 cm, 2 μm particles with 100 Å pore size). […] All MS/MS samples were analyzed using Mascot Daemon (Matrix Science, London, UK; version 2.4.0). […]

For assay [4], the target named is T1, MIK2^ECD, extracellular LRR domain of MALE DISCOVERER 1-INTERACTING RECEPTOR-LIKE KINASE 2 (Arabidopsis thaliana, UniProt Q8VZG8 44-707).
T1 construct: also called MIK2^ECD-6×HIS
T1 sequence (looked up): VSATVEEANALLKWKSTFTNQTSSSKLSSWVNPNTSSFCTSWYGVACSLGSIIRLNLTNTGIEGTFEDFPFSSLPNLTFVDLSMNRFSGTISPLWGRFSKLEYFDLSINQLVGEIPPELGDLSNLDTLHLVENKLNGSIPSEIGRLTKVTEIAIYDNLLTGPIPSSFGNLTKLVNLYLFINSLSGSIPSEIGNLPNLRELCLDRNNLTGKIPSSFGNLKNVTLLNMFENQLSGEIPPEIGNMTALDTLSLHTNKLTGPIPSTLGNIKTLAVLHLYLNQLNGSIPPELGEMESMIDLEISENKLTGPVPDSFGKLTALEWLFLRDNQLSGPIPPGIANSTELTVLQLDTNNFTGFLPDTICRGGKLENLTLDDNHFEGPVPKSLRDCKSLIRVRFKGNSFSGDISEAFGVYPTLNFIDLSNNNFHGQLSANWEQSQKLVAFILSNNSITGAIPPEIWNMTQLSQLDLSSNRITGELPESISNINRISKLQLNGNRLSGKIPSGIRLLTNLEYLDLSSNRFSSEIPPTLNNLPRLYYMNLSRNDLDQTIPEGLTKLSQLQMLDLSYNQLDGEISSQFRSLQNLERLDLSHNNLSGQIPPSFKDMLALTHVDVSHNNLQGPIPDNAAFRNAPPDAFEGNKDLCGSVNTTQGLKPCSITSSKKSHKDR
Put plainly: SPR. To be noted: both partners purified.

The target in assay [5] is T1, MIK2^ECD, extracellular LRR domain of …. Put plainly: ITC; MicroCal ITC200, 25 °C, 200 mM HEPES pH 7.0, 100 mM NaCl; 600 µM peptide injected into 30 µM MIK2^ECD in the cell. As to conditions: both partners purified.

No end group written: not given here.

As for “ATKVKAKQRGKEKVSSGRPGQHN [Pep1, plant endogenous peptide recognized by PEPR1/PEPR2]”, in assay [1], the “response of mik2-1 to Pep1” value is reported as “responded to the Pep1 treatment similarly to WT plants”. In assay [2], the “brown roots and darkened root-hypocotyl junctions” value was “brown roots, and darkened root-hypocotyl junctions”; the “root growth retardation” value is reported as “severe root growth retardation”.

With “HIS-SCOOP12: recombinant HIS-SCOOP12 proteins expressed in E. coli (LMGSGASGPVRSSQSSQAGGRFNDADPIAIDYGKY; also: His tag (not in given chain); UniProt B3H7I1 44-78, looked up)”, the “proteolytic processing by Arabidopsis protein extracts” value in assay [3] (5 μg HIS-SCOOP12, seedling extract, 5 h, room temperature, pH 7.4) is reported as “proteolytically processed upon incubation with Arabidopsis protein extracts”. Further, in assay [3] (Nano-LC-MS/MS), the cleavage site result is reported as “cleaved after arginine 43 (R^43)”. Moreover, in assay [3] (Nano-LC-MS/MS, in-gel Lys-C digestion), the “identified SCOOP12 fragment” value is “from leucine 44 (L^44) to lysine 78 (Y^78)”.

B1: SCOOP12^SS/AA peptide (peptide)
chain: PVRSAQASQAGGR
modifications: Synthetic peptide. Exact limits are in Supplementary Data 4 (not shown); same conventional 13-mer as m1, with both SxS-motif serines changed to alanine.
B1: the Kd in assay [4] worked out at 3480 µM. That is a millimolar value.

B2: SCOOP12 peptide (SERINE-RICH ENDOGENOUS PEPTIDE 12) (peptide)
chain: PVRSSQSSQAGGR
modifications: Synthetic peptide, unlabelled in ITC/SPR; an N-terminal TAMRA version was used for in vivo binding. Exact limits are in Supplementary Data 4 (not shown). Limits taken as the commonly used 13-mer …
On to B2, for which, in assay [5], the Kd worked out at 3.18 µM and the “stoichiometry N” value was roughly 1. The Kd in assay [4] was 1.78 µM.
